Patent US10662204B2 (PFIZER INC., priority 2018, dated 2020)

Experiments:
[1] = molecular target: T1, GDP-loaded KRAS (1-169) G12C, C51S, C80L, C118S (Homo sapiens, UniProt P01116, C118S/C51S/C80L/G12C); assay: Mass Spectrometry Reactivity Assay (MSRA): covalent adduct of compound and KRAS G12C, Percent Modification; format: binding; settings: for MSRA (% modification) 10 μM 0.25 hr / MSRA (% modification) 10 μM 0.50 hr: 10 μM compound; for MSRA (% modification) 5.0 μM 0.25 hr / MSRA (% modification) 5.0 μM 0.017 hr: 5.0 μM compound
T1 construct: GDP-loaded KRAS (1-169) G12C, C51S, C80L, C118S
Method in brief: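 Covalent labelling is measured by intact mass: deconvoluted modified and unmodified peak intensities yield percent modification. Compound, usually 5 μM or 10 μM final, reacts at room temperature with 5 μM GDP-bound KRAS G12C (1-169, C51S/C80L/C118S) in Hepes pH 7.5/NaCl/glycerol, sampled at 1, 15, 30, 60 min.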

KRAS G12C = KRAS G12C (Homo sapiens, UniProt P01116, G12C); assay: Cell Activity Assay: accumulation of GDP-bound KRAS G12C in MIAPaCa-2 cells (Raf-1 RBD capture, MSD readout); format: cell-based; set-up: endogenous in cells; host or cells: MIAPaCa-2; settings: 6 hours, assay limit is 30.00
Method in brief: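 IC50 came from a 4-parameter fit of Ras signal normalized between DMSO and full-inhibition controls. Readout: lysate GTP-Ras bound to immobilized Raf-1 RBD, quantified with pan-Ras antibody and MSD electrochemiluminescence. Lysates derived from MIAPaCa-2 cells treated 6 h with serially diluted compound, 0.3% DMSO.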

`C=CC(=O)N1CCN(c2ncnc3c(Oc4c(C)c(Cl)cc5[nH]ncc45)cccc23)CC1CC#N` (stereo not drawn) [Example 22C, (1-acryloyl-4-{8-[(5-chloro-6-mehtyl-1H-indazol-4-yl)oxy]quinazolin-4-yl}piperazin-2-yl)acetonitrile] was tested, and the “MSRA (% modification) 10 μM 0.25 hr” value [1] was 75%, the “MSRA (% modification) 10 μM 0.50 hr” value [1] was 75% and the IC50 (KRAS G12C) was 14 µM.

For `C=CC(=O)N1CCN(c2nc(OC[C@@H]3CCCN3C)nc3c(Oc4c(C)c(Cl)cc5[nH]ncc45)cccc23)CC1` [Example 22E, 1-[4-(8-[(6-chloro-5-methyl-1H-indazol-4-yl)oxy]-2-{[(2S)-1-methylpyrrolidin-2-yl]methoxy}quinazolin-4-yl)piperazin-1-yl]prop-2-en-1-one], the “MSRA (% modification) 5.0 μM 0.25 hr” value [1] was 83%, the “MSRA (% modification) 10 μM 0.25 hr” value [1] was 81% and the “MSRA (% modification) 10 μM 0.50 hr” value [1] was 83%. For the same compound, the IC50 (KRAS G12C) was 0.056 µM.

In the case of `C=CC(=O)N1CCN(c2nc(OCc3cscn3)nc3c(Oc4c(C)ccc5[nH]ncc45)nccc23)CC1` [Example 22F, 1-(4-{8-[(5-methyl-1H-indazol-4-yl)oxy]-2-(1,3-thiazol-4-ylmethoxy)pyrido[3,4-d]pyrimidin-4-yl}piperazin-1-yl)prop-2-en-1-one], the “MSRA (% modification) 5.0 μM 0.25 hr” value [1] is reported as 33% and the IC50 (KRAS G12C) is reported as 0.535 µM.

For `C=CC(=O)N1CCN(c2nc(OC[C@H]3C[C@@H](F)CN3C)nc3c(Oc4c(Cl)c(F)cc5[nH]ncc45)nc(Cl)cc23)CC1` [Example 22G, 1-[4-(6-chloro-8-[(5-chloro-6-fluoro-1H-indazol-4-yl)oxy]-2-{[(2R,4R)-4-fluoro-1-methylpyrrolidin-2-yl]methoxy}pyrido[3,4-d]pyrimidin-4-yl)piperazin-1-yl]prop-2-en-1-one], the “MSRA (% modification) 10 μM 0.25 hr” value [1] was 81% and the IC50 (KRAS G12C) was 0.072 µM.

`C=CC(=O)N1CCN(c2nc(Oc3cccc4c3CCN(C)C4)nc3c(Oc4c(Cl)c(F)cc5[nH]ncc45)nccc23)CC1` [Example 22I, 1-(4-{8-[(5-chloro-6-fluoro-1H-indazol-4-yl)oxy]-2-[(2-methyl-1,2,3,4-tetrahydro-isoquinolin-5-yl)oxy]pyrido [3,4-d]pyrimidin-4-yl}piperazin-1-yl)prop-2-en-1-one] was tested, and the “MSRA (% modification) 5.0 μM 0.017 hr” value [1] was 80% and the IC50 (KRAS G12C) was 0.003 µM.

In the case of `C=CC(=O)N1CCN(c2ncnc3c(Oc4c(C)c(Cl)cc5[nH]ncc45)nccc23)C[C@@H]1C` [Example 23A, 1-[(2S)-4-{8-[(6-chloro-5-methyl-1H-indazol-4-yl)oxy]pyrido[3,4-d]pyrimidin-4-yl}-2-methylpiperazin-1-yl]prop-2-en-1-one], the “MSRA (% modification) 10 μM 0.50 hr” value [1] is reported as 20% and the IC50 (KRAS G12C) is reported as 11.6 µM.

With `C=CC(=O)N1CCN(c2nc(OCc3cscn3)nc3c(Oc4c(C)ccc5[nH]ncc45)cccc23)CC1` [Example 23F, 1-(4-{8-[(5-methyl-1H-indazol-4-yl)oxy]-2-(1,3-thiazol-4-ylmethoxy)quinazolin-4-yl}piperazin-1-yl)prop-2-en-1-one] the “MSRA (% modification) 5.0 μM 0.25 hr” value [1] was 55%, the “MSRA (% modification) 10 μM 0.25 hr” value [1] was 66% and the IC50 (KRAS G12C) was 0.944 µM.

In the case of `C=CC(=O)N1CCN(c2nc(OCCO)nc3c(Oc4c(Cl)c(F)cc5[nH]ncc45)nc(Cl)cc23)CC1` [Example 23G, 1-(4-{6-chloro-8-[(5-chloro-6-fluoro-1H-indazol-4-yl)oxy]-2-(2-hydroxyethoxy)pyrido[3,4-d]pyrimidin-4-yl}piperazin-1-yl)prop-2-en-1-one], the “MSRA (% modification) 5.0 μM 0.25 hr” value [1] is reported as 35% and the IC50 (KRAS G12C) is reported as 0.688 µM.

For `C=CC(=O)N1CCN(c2ncnc3c(Oc4c(C)c(Cl)cc5[nH]ncc45)nccc23)C[C@H]1C` [Example 24A, 1-[(2R)-4-{8-[(6-chloro-5-methyl-1H-indazol-4-yl)oxy]pyrido[3,4-d]pyrimidin-4-yl}-2-methylpiperazin-1-yl]prop-2-en-1-one], the “MSRA (% modification) 10 μM 0.50 hr” value [1] was 20% and the IC50 (KRAS G12C) was 4.72 µM.

`C=CC(=O)N1CCN(c2nc(O[C@@H]3CN(C)C[C@H]3OC)nc3c(Oc4c(Cl)c(F)cc5[nH]ncc45)nc(Cl)cc23)CC1` [Example 24G, 1-[4-(6-chloro-8-[(5-chloro-6-fluoro-1H-indazol-4-yl)oxy]-2-{[(3R,4R)-4-methoxy-1-methylpyrrolidin-3-yl]oxy}pyrido[3,4-d]pyrimidin-4-yl)piperazin-1-yl]prop-2-en-1-one] was tested, and the “MSRA (% modification) 5.0 μM 0.017 hr” value [1] was 83%, the “MSRA (% modification) 5.0 μM 0.25 hr” value [1] was 84% and the IC50 (KRAS G12C) was 0.004 µM.

With `C=CC(=O)N1CCN(c2ncnc3c(Oc4c(Cl)c(F)cc5[nH]ncc45)nccc23)C[C@H]1C` [Example 25A, 1-[(2R)-4-{8-[(5-chloro-6-fluoro-1H-indazol-4-yl)oxy]pyrido[3,4-d]pyrimidin-4-yl}-2-methylpiperazin-1-yl]prop-2-en-1-one] the “MSRA (% modification) 10 μM 0.50 hr” value [1] was 17% and the IC50 (KRAS G12C) was 8.89 µM.

In the case of `C=CC(=O)N1CCN(c2nc(OC[C@]3(F)CCCN(C)C3)nc3c(Oc4c(Cl)c(F)cc5[nH]ncc45)nc(Cl)cc23)CC1` [Example 25G, 1-[4-(6-chloro-8-[(5-chloro-6-fluoro-1H-indazol-4-yl)oxy]-2-{[(3S)-3-fluoro-1-methylpiperidin-3-yl]methoxy}pyrido[3,4-d]pyrimidin-4-yl)piperazin-1-yl]prop-2-en-1-one], the “MSRA (% modification) 5.0 μM 0.017 hr” value [1] is reported as 73% and the IC50 (KRAS G12C) is reported as 0.009 µM.

With `C=CC(=O)N1CCN(c2ncnc3c(Oc4c(Cl)c(F)cc5[nH]ncc45)nccc23)C[C@@H]1C` [Example 26A, 1-[(2S)-4-{8-[(5-chloro-6-fluoro-1H-indazol-4-yl)oxy]pyrido[3,4-d]pyrimidin-4-yl}-2-methylpiperazin-1-yl]prop-2-en-1-one] the “MSRA (% modification) 10 μM 0.50 hr” value [1] was 14% and the IC50 (KRAS G12C) was 27.6 µM.

`C=CC(=O)N1CCN(c2ncnc3c(Oc4c(C)c(Cl)cc5[nH]ncc45)nc(C#N)cc23)C[C@H]1C` [Example 27A, 4-[(3R)-4-acryloyl-3-methylpiperazin-1-yl]-8-[(6-chloro-5-methyl-1H-indazol-4-yl)oxy]pyrido[3,4-d]pyrimidine-6-carbonitrile] was tested, and the “MSRA (% modification) 10 μM 0.50 hr” value [1] was 30% and the IC50 (KRAS G12C) was 13.3 µM.

In the case of `C=CC(=O)N1CCN(c2nc(O[C@@H]3CN(C)C[C@H]3OCC)nc3c(Oc4c(Cl)c(F)cc5[nH]ncc45)nc(Cl)cc23)CC1` [Example 27G, 1-[4-(6-chloro-8-[(5-chloro-6-fluoro-1H-indazol-4-yl)oxy]-2-{[(3R,4R)-4-ethoxy-1-methylpyrrolidin-3-yl]oxy}pyrido[3,4-d]pyrimidin-4-yl)piperazin-1-yl]prop-2-en-1-one], the “MSRA (% modification) 5.0 μM 0.017 hr” value [1] is reported as 67% and the IC50 (KRAS G12C) is reported as 0.029 µM.

In the case of `C=CC(=O)N1CCN(c2ncnc3c(Oc4c(C)c(Cl)cc5[nH]ncc45)nc(C#N)cc23)CC1` [Example 28A, 4-(4-acryloylpiperazin-1-yl)-8-[(6-chloro-5-methyl-1H-indazol-4-yl)oxy]pyrido[3,4-d]pyrimidine-6-carbonitrile], the “MSRA (% modification) 10 μM 0.50 hr” value [1] is reported as 61% and the IC50 (KRAS G12C) is reported as 1.02 µM.

In the case of `C=CC(=O)N1CCN(c2nc(O[C@@H]3CN(C)C[C@H]3OC)nc3c(Oc4c(C)ccc5[nH]ncc45)nccc23)CC1` [Example 28I], the “MSRA (% modification) 5.0 μM 0.017 hr” value [1] is reported as 11% and the IC50 (KRAS G12C) is reported as 1 µM.

In the case of `C=CC(=O)N1CCN(c2ncnc3c(Oc4c(Cl)c(Cl)cc5[nH]ncc45)nccc23)CC1` [Example 29A, 1-(4-{8-[(5,6-dichloro-1H-indazol-4-yl)oxy]pyrido[3,4-d]pyrimidin-4-yl}piperazin-1-yl)prop-2-en-1-one], the “MSRA (% modification) 10 μM 0.25 hr” value [1] is reported as 70%, the “MSRA (% modification) 10 μM 0.50 hr” value [1] is reported as 76% and the IC50 (KRAS G12C) is reported as 0.391 µM.

In the case of `C=CC(=O)N1CCN(c2nc(O[C@@H]3CN(C)C[C@H]3OC)nc3c(Oc4c(Cl)c(Cl)cc5[nH]ncc45)nc(Cl)cc23)CC1` [Example 29G, 1-[4-(6-chloro-8-[(5,6-dichloro-1H-indazol-4-yl)oxy]-2-{[(3R,4R)-4-methoxy-1-methylpyrrolidin-3-yl]oxy}pyrido[3,4-d]pyrimidin-4-yl)piperazin-1-yl]prop-2-en-1-one], the “MSRA (% modification) 5.0 μM 0.017 hr” value [1] is reported as 82% and the IC50 (KRAS G12C) is reported as 0.005 µM.

In the case of `C=CC(=O)N1CCN(c2ncnc3c(Oc4c(Cl)c(Cl)cc5[nH]ncc45)nc(Cl)cc23)CC1` [Example 30A, 1-(4-{6-chloro-8-[(5,6-dichloro-1H-indazol-4-yl)oxy]pyrido[3,4-d]pyrimidin-4-yl}piperazin-1-yl)prop-2-en-1-one], the “MSRA (% modification) 10 μM 0.50 hr” value [1] is reported as 67% and the IC50 (KRAS G12C) is reported as 0.247 µM.

`C=CC(=O)N1CCN(c2nc(Oc3cccc4c3CCN(C(C)C)C4)nc3c(Oc4c(C)ccc5[nH]ncc45)nccc23)CC1` [Example 30I, 1-[4-(8-[(5-methyl-1H-indazol-4-yl)oxy]-2-{[2-(propan-2-yl)-1,2,3,4-tetrahydro-isoquinolin-5-yl]oxy}pyrido [3,4-d]pyrimidin-4-yl)piperazin-1-yl]prop-2-en-1-one] was tested, and the “MSRA (% modification) 5.0 μM 0.017 hr” value [1] was 45% and the IC50 (KRAS G12C) was 0.03 µM.
